The results in this text go back to patent EP0029617A1, “Use of tertiary heterocyclic amines as synergists in pesticides; derivatives of cycloamines” (priority 1979, dated 1981).

Like-named read-outs stand apart in the source and are kept apart here.

For this data set, the system named is Kornkäfer (sitophilus granarius L). As to the kind of experiment: whole plant or invertebrate. It is filed as in vivo. The conditions noted are these: for mortality at 1000 µg/mL: read-out: Wirksamkeit in % Substanz allein; for Wirksamkeit in % Substanz +Ripcord: amine 1 mg/ml mixed 1 : 1 with Ripcord 0,01 mg/ml; for Wirksamkeit in % Substanz +Talcord: amine 1 mg/ml mixed 1 : 1 with Talcord 0,01 mg/ml. As for the experimental part:
Test von tertiären, heterocyclischen Aminen allein und im Gemisch mit Pyrethroiden an Kornkäfern (sitophilus granarius L)
In Petrischalen mit 15 cm Durchmesser mit talcumbepuderten Seitenwänden, um das Entfliehen der Kornkäfer zu verhindern, wurden jeweils 2 ml der Acetonlösungen einpipettiert und durch vorsichtiges Schwenken der Schalen gleichmäßig auf dem Boden verteilt. Nach dem Abdampfen des Acetons und dem Antrocknen der Beläge wurden in jede Schale 25 Kornkäfer eingezählt. Nach einer Stunde wurde jeweils ein 12,5 cm Rundfilter in die Schalen eingelegt, um den Käfern das Befreien aus der Rückenlage zu ermöglichen, was auf der glatten Glasplatte nicht möglich ist. Die lichtscheuen Käfer verkrochen sich mit Vorliebe unter die Filter und blieben so ständig mit den Wirkstoffbelägen in Kontakt. Alle Versuche liefen mit 3 Wiederholungen. Nach 3 h wurden die toten Käfer ausgezählt.
In der Tabelle 3 ist jeweils der Durchschnitt der Summe der 4 Einzelwerte angegeben. 25 tote Kornkäfer entsprechen dabei einer Wirkung von 100 %. Die Temperaturen betrugen während der Tests im Durchschnitt 19 - 21°C. Der synergistische Faktor berechnet sich analog wie in Beispiel 1 angegeben.
Die zu prüfenden tertiären, heterocyclischen Amine wurden - mit 1 mg Wirkstoff pro ml als Acetonlösungen angesetzt. Sie wurden im Verhältnis 1 : 1 mit Ripcord bzw. Talcord, die mit 0,01 mg Wirkstoff pro ml als Acetonlösung vorlagen, gemischt. Die Einzelkomponenten wurden im Verhältnis 1 : 1 mit Aceton gemischt.
Auch bei diesen Versuchen zeigten die Kontrollversuche stets bei Versuchsende eine Mortalität der Kornkäfer von 0 %.
Die synergistische Wirkung der tertiären, heterocyclischen Amine auf die Pyrethroide ist auch dann noch deutlich, wenn das Amin in wesentlich niederen Aufwandmengen eingesetzt wird, als dies in Beispiel 3 beschrieben wurde. Die Ergebnisse sind in der Tabelle 4 zusammengestellt. Dieser Versuch zeigt auch, daß Amine mit insektiziden Eigenschaften, wenn sie in Konzentrationen unterhalb ihres insektiziden Wirkungsbereiches eingesetzt werden, immer noch gute synergistische Wirkungen im Gemisch mit Pyrethroiden zeigen. Die Versuche wurden wie im Beispiel 3 beschrieben mit Kornkäfern durchgeführt. Es wurden lediglich die Konzentrationen der eingesetzten tertiären, heterocyclischen Amine geändert. Für die Verdünnung Pyrethroid : Amin = 1 : 10 wurde das Amin mit 0,1 mg Wirkstoff/ml Acetonlösung eingesetzt. Für die Verdünnung 1 : 5 mit 0,05 mg Wirkstoff/ml.

The mark [1] stands for this setting: Sitophilus granarius, amine 1 mg/ml in Aceton mixed 1 : 1 with Aceton, 2 ml per dish, 25 weevils, dead counted after 3 h.
[2] abbreviates: amine 1 mg/ml + Ripcord 0,01 mg/ml.
The mark [3] stands for this setting: amine 1 mg/ml + Talcord 0,01 mg/ml.
Where [4] appears, read: amine 1 mg/ml in Aceton mixed 1 : 1 with Aceton, 2 ml per dish, 25 weevils, dead counted after 3 h.
Where [5] appears, read: Pyrethroid : Amin 1 : 10, amine 0,1 mg/ml, 180 min.

For the molecule `CCCCCN1CCCC1` [N-1-Pentyl-pyrrolidin], the mortality at 1000 µg/mL under setting [1] came out at 0%. Besides, under setting [2], the “Synergistischer Faktor bei Ripcord” value was 2,37. Besides, the “Synergistischer Faktor bei Talcord” value under setting [3] is 10,3. For the setting “3 h”, the “Wirksamkeit in % Substanz +Ripcord” value is given as 74,8% and the “Wirksamkeit in % Substanz +Talcord” value is 100,0%.

As to `C(CCCN1CCCC1)CCN1CCCC1` [1,6-N,N-Di-pyrrolidino-hexan], under setting [2], the “Synergistischer Faktor bei Ripcord” value is on record as 2,52. Further, under setting [3], the “Synergistischer Faktor bei Talcord” value is 4,24. Besides, the “Wirksamkeit in % Substanz allein” value under setting [4] was 0%. Where the note is “3 h”, the “Wirksamkeit in % Substanz +Ripcord” value was 77,2% and the “Wirksamkeit in % Substanz +Talcord” value was 41,2%.

Regarding `CC1(C)C(C=C(Cl)Cl)C1C(=O)OCc1cccc(Oc2ccccc2)c1` (centres unmarked) [Talcord, reference compound], for the setting “Talcord alone, 0,01 mg/ml mixed 1 : 1 with Aceton, 3 h”, the “Wirksamkeit von Talcord” value is “Wirksamkeit von Talcord: 9,7%”.

As to `CCC(CC)N1CCCC1` [Pentyl-(3)-N-pyrrolidin], under setting [2], the “Synergistischer Faktor bei Ripcord” value is given as 2,67. For the same molecule, under setting [3], the “Synergistischer Faktor bei Talcord” value is recorded as 4,82. In addition, the “Wirksamkeit in % Substanz allein” value under setting [4] amounted to 0%. For the setting “3 h”, the “Wirksamkeit in % Substanz +Ripcord” value was 84,0% and the “Wirksamkeit in % Substanz +Talcord” value was 46,8%.

With `C=CC(C)(CCC=C(C)CCC=C(C)C)N1CCCC1` (centres unmarked) [3-N-pyrrolidino-3,7,11-tri-methyl-1,6,10-dodecatrien], the “Synergistischer Faktor bei Ripcord” value under setting [2] is given as 3,00. Further, under setting [3], the “Synergistischer Faktor bei Talcord” value is 3,59. Also, under setting [4], the “Wirksamkeit in % Substanz allein” value is 0%. Moreover, under “3 h”, the “Wirksamkeit in % Substanz +Ripcord” value was 94,8% and the “Wirksamkeit in % Substanz +Talcord” value is listed as 34,8%.

On to `OCCC(O)N1CCCC1` (centres unmarked) [1-N-Pyrrolidino-propandiol-(1,3)], for which, under setting [2], the “Synergistischer Faktor bei Ripcord” value is 3,17. Besides, the “Synergistischer Faktor bei Talcord” value under setting [3] was 8,12. Further, the “Wirksamkeit in % Substanz allein” value under setting [4] was 0%. Moreover, where the note is “3 h”, the “Wirksamkeit in % Substanz +Ripcord” value is 100,0% and the “Wirksamkeit in % Substanz +Talcord” value is recorded as 78,8%.

For `c1ccc(OCCN2CCCC2)cc1` [N-1-2-phenoxiethyl-pyrrolidin], under setting [2], the “Synergistischer Faktor bei Ripcord” value is listed as 1,69. In addition, the “Synergistischer Faktor bei Talcord” value under setting [3] is 2,88. For the same molecule, the “Wirksamkeit in % Substanz allein” value under setting [4] came to 0%. Where the note is “3 h”, the “Wirksamkeit in % Substanz +Ripcord” value is reported as 53,2% and the “Wirksamkeit in % Substanz +Talcord” value is recorded as 28,0%.

For `CCCCCCCCCCCCN1CCOCC1` [N-1-Dodecyl-morpholin], the mortality at 1000 µg/mL under setting [1] was found to be 0%. For the same molecule, the “Synergistischer Faktor bei Ripcord” value under setting [2] was 2,76. In addition, the “Synergistischer Faktor bei Talcord” value under setting [3] is on record as 1,53. Besides, where the note is “3 h”, the “Wirksamkeit in % Substanz +Ripcord” value is 86,8% and the “Wirksamkeit in % Substanz +Talcord” value is 14,8%.

In the case of `c1ccc2cc(CN3CCCCC3)ccc2c1` [2-N-Piperidino-methyl-naphthalin], the “Synergistischer Faktor bei Ripcord” value under setting [2] is recorded as 3,05. Further, the “Synergistischer Faktor bei Talcord” value under setting [3] is 9,07. In addition, the “Wirksamkeit in % Substanz allein” value under setting [4] is given as 0%. In addition, where the note is “3 h”, the “Wirksamkeit in % Substanz +Ripcord” value is reported as 96,0% and the “Wirksamkeit in % Substanz +Talcord” value is 88,0%.

With `C1CCN(CCOCCOCCN2CCCC2)C1` [1,2-Bis-(2-N-pyrrolidino-ethoxi)-ethan], the “Synergistischer Faktor bei Ripcord” value under setting [2] is 3,17. The “Synergistischer Faktor bei Talcord” value under setting [3] was 7,13. Also, under setting [4], the “Wirksamkeit in % Substanz allein” value amounted to 0%. For the same molecule, under “3 h”, the “Wirksamkeit in % Substanz +Ripcord” value is on record as 100,0% and the “Wirksamkeit in % Substanz +Talcord” value is on record as 69,2%.

With `C(CCCCCN1CCCC1)CCCCN1CCCC1` [1,10-N,N-Di-pyrrolidino-decan], the “Synergistischer Faktor bei Ripcord” value under setting [2] is on record as 2,54. Further, under setting [3], the “Synergistischer Faktor bei Talcord” value is 3,00. Also, the “Wirksamkeit in % Substanz allein” value under setting [4] is recorded as 0%. For the same molecule, where the note is “3 h”, the “Wirksamkeit in % Substanz +Ripcord” value is 80,0% and the “Wirksamkeit in % Substanz +Talcord” value is 29,2%.

With `C#CCN1CCCCC1CC` (centres unmarked) [N-1-Propanrgyl-2-ethyl-piperidin], the “Synergistischer Faktor bei Ripcord” value under setting [2] is on record as 2,92. In addition, the “Synergistischer Faktor bei Talcord” value under setting [3] was 3,84. For the same molecule, the “Wirksamkeit in % Substanz allein” value under setting [4] stood at 0%. In addition, under “3 h”, the “Wirksamkeit in % Substanz +Ripcord” value is given as 92,0% and the “Wirksamkeit in % Substanz +Talcord” value was 37,2%.

Turning to `C=CC(C)(CCC=C(C)C)N1CCCCCC1` (centres unmarked) [6-N-Hexamethylenimino-2,6-dimethyl-octadien-(2,7)], the “Synergistischer Faktor bei Ripcord” value under setting [2] is 2,41. For the same molecule, under setting [3], the “Synergistischer Faktor bei Talcord” value is on record as 7,30. Besides, the “Wirksamkeit in % Substanz allein” value under setting [4] turned out to be 0%. In addition, where the note is “3 h”, the “Wirksamkeit in % Substanz +Ripcord” value is listed as 76,0% and the “Wirksamkeit in % Substanz +Talcord” value is 70,8%.

For `O=[N+]([O-])c1ccc(CN2CCCCC2)cc1` [N-4-Nitro-benzyl-piperidin], under setting [1], the mortality at 1000 µg/mL came out at 2.8%. Further, the “Synergistischer Faktor bei Ripcord” value under setting [2] is reported as 1,47. For the same molecule, the “Synergistischer Faktor bei Talcord” value under setting [3] is listed as 1,77. Further, under “3 h”, the “Wirksamkeit in % Substanz +Ripcord” value is listed as 49,2% and the “Wirksamkeit in % Substanz +Talcord” value is recorded as 20,0%.

Turning to `CCCCCCCCCCCN1CCCC1` [N-1-Undecyl-pyrrolidin], for the setting “Pyrethroid : Amin 1 : 10”, the “Synergistischer Faktor bei Ripcord” value was 3,09 and the “Synergistischer Faktor bei Talcord” value is 7,42. For the same molecule, under setting [5], the “% Wirkung Substanz +Ripcord” value was 97,2% and the “% Wirkung Substanz +Talcord” value is reported as 72,0%. The mortality at 100 µg/mL (Sitophilus granarius, 3 h, amine 0,1 mg/ml (as for Pyrethroid : Amin 1 : 10), read-out: % Wirkung Substanz allein) came to 0%.

As for `CCCCCCCCCCCCCCCCN1CCCCC1CC` (centres unmarked) [N-1-Hexadecyl-2-ethyl-piperidin], the mortality at 1000 µg/mL under setting [1] was 0%. Under setting [2], the “Synergistischer Faktor bei Ripcord” value was 2,37. Besides, under setting [3], the “Synergistischer Faktor bei Talcord” value was 1,94. Moreover, where the note is “3 h”, the “Wirksamkeit in % Substanz +Ripcord” value is listed as 74,8% and the “Wirksamkeit in % Substanz +Talcord” value was 18,8%.

Regarding `CCCCCCCCCCCCN1CC1` [N-1-Dodecyl-ethylenimin], under “Sitophilus granarius, 3 h”, the mortality at 1000 µg/mL stood at 0%. Under setting [2], the “Synergistischer Faktor bei Ripcord” value was 2,86. Further, the “Synergistischer Faktor bei Talcord” value under setting [3] is recorded as 3,71. Where the note is “3 h”, the “Wirksamkeit in % Substanz +Ripcord” value is recorded as 90,0% and the “Wirksamkeit in % Substanz +Talcord” value was 36,0%.

`C#CCN1CCCC1` [3-N-pyrrolidino-propin]: the “Synergistischer Faktor bei Ripcord” value under setting [2] was 1,61. The “Synergistischer Faktor bei Talcord” value under setting [3] was 1,52. Also, the “Wirksamkeit in % Substanz allein” value under setting [4] came out at 0%. Where the note is “3 h”, the “Wirksamkeit in % Substanz +Ripcord” value was 50,8% and the “Wirksamkeit in % Substanz +Talcord” value is 14,8%.

Turning to `c1ccc(OCCN2CCCCCC2)cc1` [N-2-Phenoxi-ethyl-(1)-hexa-methylenimin], the “Synergistischer Faktor bei Ripcord” value under setting [2] is 2,70. Further, the “Synergistischer Faktor bei Talcord” value under setting [3] is on record as 5,09. In addition, the “Wirksamkeit in % Substanz allein” value under setting [4] is recorded as 0%. Moreover, under “3 h”, the “Wirksamkeit in % Substanz +Ripcord” value was 85,2% and the “Wirksamkeit in % Substanz +Talcord” value is reported as 49,4%.

On to `O=C1CCCCC1CN1CCCCC1` (centres unmarked) [2-N-Piperidino-methyl-cyclo-hexanon], for which, under setting [2], the “Synergistischer Faktor bei Ripcord” value was 1,65. For the same molecule, the “Synergistischer Faktor bei Talcord” value under setting [3] is recorded as 1,65. Moreover, the “Wirksamkeit in % Substanz allein” value under setting [4] was 18,8%. In addition, under “3 h”, the “Wirksamkeit in % Substanz +Ripcord” value is 70,8% and the “Wirksamkeit in % Substanz +Talcord” value is 34,8%.

Take `c1ccc(CN2CCOCC2)cc1` [N-Benzyl-morpholin]: the mortality at 1000 µg/mL under setting [1] stood at 0%. Under setting [2], the “Synergistischer Faktor bei Ripcord” value is recorded as 1,43. Also, the “Synergistischer Faktor bei Talcord” value under setting [3] is 2,19. Under “3 h”, the “Wirksamkeit in % Substanz +Ripcord” value is reported as 45,2% and the “Wirksamkeit in % Substanz +Talcord” value is reported as 21,2%.

Take `C(CCCN1CCCCC1)CCN1CCCCC1` [1,6-N,N-Di-piperidino-hexan]: under setting [2], the “Synergistischer Faktor bei Ripcord” value is listed as 2,82. The “Wirksamkeit in % Substanz allein” value under setting [4] is 0%. Besides, for the setting “3 h”, the “Wirksamkeit in % Substanz +Ripcord” value is reported as 57,2% and the “Wirksamkeit in % Substanz +Talcord” value was 2,8%.

Regarding `CCCCCCCCCCCCN1CCCCC1` [N-1-Dodecyl-piperidin], the mortality at 1000 µg/mL under setting [1] stood at 24%. Further, the “Synergistischer Faktor bei Ripcord” value under setting [2] was 2,24. In addition, where the note is “3 h”, the “Wirksamkeit in % Substanz +Ripcord” value is 94,6%.

As to `CCCCCCCCCCCCN1CCCC1` [N-1-Dodecyl-pyrrolidin], the mortality at 1000 µg/mL under setting [1] turned out to be 89.3%. In addition, under “3 h”, the “Wirksamkeit in % Substanz +Ripcord” value is reported as 92,0% and the “Wirksamkeit in % Substanz +Talcord” value is 96,0%.

`CCCCOC(CN1CCCCC1)OCCCC` [2-N-Piperidino-ethyl-dibutyl-acetal]: under setting [4], the “Wirksamkeit in % Substanz allein” value is given as 0%. Where the note is “3 h”, the “Wirksamkeit in % Substanz +Ripcord” value was 86,8% and the “Wirksamkeit in % Substanz +Talcord” value is listed as 36,0%. Under “in vivo”, the “Synergistischer Faktor bei Ripcord” value is given as 2,76 and the “Synergistischer Faktor bei Talcord” value is on record as 3,71.
